# Measured values as given in publication PMC7845594, “Novel Immune Modulators Enhance Caenorhabditis elegans Resistance to Multiple Pathogens” (mSphere, 2021).
# Key:
# [1] = tested on: C. elegans exposed to P. aeruginosa strain PA14; assay: P. aeruginosa slow-killing assay (agar); assay type: in vivo, Caenorhabditis elegans; conditions: for Survival in slow-killing assay vs DMSO: wild-type young adult worms
# From the text: The finding that each of the compounds activated PMK-1/p38 MAPK targets was of interest, as this pathway is associated with enhanced immunity against multiple bacterial pathogens in agar-based C. elegans assays. Therefore, we tested whether these compounds could promote survival in an agar-based, high-colonization pathogenesis model known as slow killing. Loss of PMK-1 activity substantially compromises survival in the slow-killing assay ([16], [47]). Wild-type, young adult worms were exposed to P. aeruginosa strain PA14 on agar plates impregnated with each of the five compounds. […] To see whether this depended upon the PMK-1 pathway, LK32, LK38, and LK56 were retested in worms where RNAi was used to knock down pmk-1/MAPK or atf-7/ATF7 (a key transcription factor whose activity is modulated by PMK-1 [63, 64]) (Fig. 9; see Table S2 in the supplemental material for TD50 and overall statistical significance).
# FIG 8 Four LK molecules extend C. elegans life span in the slow-killing assay. […] The data shown are from a representative replicate. Each of the three biological replicates was comprised of three plates per condition, with each plate containing ∼60 worms. Statistical significance was calculated using a log-rank test. Worms that left the surface of the plate were excluded from analysis (see Table S2 in the supplemental material for TD50 and exact P values).
# FIG 9 Rescue in slow killing by a subset of LK compounds depends upon the PMK-1/p38 MAPK pathway. Wild-type L4 worms were reared on RNAi targeting pmk-1/p38 MAPK, atf-7/ATF-7, or empty vector and placed onto slow-killing plates containing DMSO or LK32 (A and B), LK38 (C and D), or LK56 (E and F) at 50 µM. Starting at 24 h, worms were scored every 12 h for survival until all worms perished. Each of the three biological replicates was comprised of three plates, each plate contained approximately 50 to 70 worms. Statistical significance was calculated using log-rank test (see Table S2 in the supplemental material for TD50 and exact P values). For vector RNAi, DMSO versus compound, P < 0.001 for LK38, LK56, and LK32.
# Supplementary file : FIG S5 NSY-1 and SEK-1, upstream members of the PMK-1/p38 MAPK pathway, are required for LK38-mediated rescue. Young adult wild-type, nsy-1/MAP3K15(ag3), or sek-1/MAP2K6(km-4) mutants were exposed to P. aeruginosa in the slow-killing assay in the presence of DMSO or LK38. Data for each condition at each time point represent the average value for three plates from one representative replicate (of three replicates total). Each plate contained ∼60 worms. P values were calculated using a log-rank test (see Table S2 in the supplemental material for the TD50 and exact P values). For wild-type DMSO versus LK38 P < 0.001. No statistically significant difference was measured between LK38 and DMSO for either mutant. Download FIG S5, PDF file, 0.1 MB.
# Slow-killing (SK) plates were made as previously reported ([92]). Compounds were added to molten SK agar before pouring plates. After solidifying, 40 µl of PA14 overnight culture was spread on plates before incubating plates at 37°C for 24 h, followed by 25°C for 24 h. 5-fluoro-2′-deoxyuridine (FUDR) (0.1 mg/ml) was dropped on plates 30 min prior to picking worms, to ensure nematode sterility. Fifty to seventy L4-stage, wild-type worms were picked onto plates and scored every 12 h after the first 24 h, until all worms were dead. Three biological replicates were performed.
# [2] = tested on: C. elegans host defense pathway genes; assay: nanoString expression of 115 immune- and stress-responsive genes; conditions: 100 μM LK molecules, 16 h
# Experimental: The ratio of MIC to EC was determined for each of the 69 compounds.
# Analysis of the expression of 115 immune- and stress-responsive genes using nanoString technology. Download Table S1, XLSX file, 0.02 MB.
# For nanoString-based (nanoString Technologies, Seattle, WA) experiments, 2,000 wild-type, young adult worms were exposed to 100 μM LK molecules or DMSO control in S Basal medium in 6-well plates for 16 h. RNA purification and gene expression analysis were performed according to nanoString guidelines. Two biological replicates were tested for each condition.
smiles,measurement,setting,value
CNC(=O)Oc1c(Br)cc2sc(=O)oc2c1Br [LK34],Survival in slow-killing assay vs DMSO,[1]; 50 µM,improved survival
same,"B0024.4 expression, induction",[2],0.79 fold
same,"C02B4.2 nhr-17 expression, induction",[2],1.60 fold
same,"C03G6.15 cyp-35A2 expression, induction",[2],2.32 fold
same,"C06B3.3 cyp-35C1 expression, induction",[2],2.40 fold
same,"C06B3.7 expression, induction",[2],2.34 fold
same,"C07G3.2 irg-1 expression, induction",[2],2.14 fold
same,"C12C8.1 hsp-70 expression, induction",[2],2.02 fold
same,"C15F1.7 sod-1 expression, induction",[2],2.23 fold
same,"C29F7.2 expression, induction",[2],1.42 fold
same,"C31A11.5 oac-6 expression, induction",[2],3.81 fold
same,"C32D5.12 expression, induction",[2],2.84 fold
same,"C32H11.1 expression, induction",[2],5.22 fold
same,"C32H11.3 expression, induction",[2],4.04 fold
same,"C34G6.4 pgp-2 expression, induction",[2],1.78 fold
same,"C37C3.10 expression, induction",[2],2.56 fold
same,"C37H5.8 hsp-6 expression, induction",[2],2.28 fold
same,"C49G7.5 irg-2 expression, induction",[2],2.61 fold
same,"F08F8.5 numr-1 expression, induction",[2],3.73 fold
same,"F08H9.4 expression, induction",[2],2.08 fold
same,"F14F9.3 expression, induction",[2],2.72 fold
same,"F22B5.4 expression, induction",[2],0.86 fold
same,"F22H10.2 expression, induction",[2],1.72 fold
same,"F26A3.4 expression, induction",[2],1.09 fold
same,"F35E8.11 cdr-1 expression, induction",[2],3.15 fold
same,"F35G2.4 phy-2 expression, induction",[2],1.71 fold
same,"F37B12.2 gcs-1 expression, induction",[2],4.32 fold
same,"F43E2.8 hsp-4 expression, induction",[2],2.24 fold
same,"F44E5.5 expression, induction",[2],1.49 fold
same,"F49F1.6 expression, induction",[2],1.85 fold
same,"F49F1.7 expression, induction",[2],3.64 fold
same,"F49H6.13 expression, induction",[2],2.55 fold
same,"F54B8.4 expression, induction",[2],1.78 fold
same,"F55G11.2 expression, induction",[2],1.39 fold
same,"F59A7.1 clec-206 expression, induction",[2],2.12 fold
same,"F59B10.4 expression, induction",[2],1.89 fold
same,"H12D21.1 nspa-1 expression, induction",[2],39.17 fold
same,"H23N18.1 ugt-13 expression, induction",[2],2.95 fold
same,"H23N18.3 ugt-8 expression, induction",[2],5.59 fold
same,"K05B2.4 expression, induction",[2],3.62 fold
same,"K07C6.3 cyp-35B2 expression, induction",[2],4.00 fold
same,"K07G6.4 cyp-35B1 expression, induction",[2],2.31 fold
same,"K08F4.7 gst-4 expression, induction",[2],9.69 fold
same,"K09A9.1 nipi-3 expression, induction",[2],1.52 fold
same,"K09D9.2 cyp-35A3 expression, induction",[2],3.13 fold
same,"K10D11.2 expression, induction",[2],1.97 fold
same,"K10G4.3 expression, induction",[2],2.74 fold
same,"R03D7.6 gst-5 expression, induction",[2],9.49 fold
same,"R08H2.1 dhs-23 expression, induction",[2],3.44 fold
same,"R10E8.3 expression, induction",[2],2.60 fold
same,"T19D12.3 expression, induction",[2],3.00 fold
same,"T19H12.1 ugt-9 expression, induction",[2],2.48 fold
same,"T21E8.1 pgp-6 expression, induction",[2],2.62 fold
same,"T22B7.3 expression, induction",[2],1.84 fold
same,"T24C4.4 expression, induction",[2],2.67 fold
same,"T24E12.5 expression, induction",[2],4.33 fold
same,"T27E4.3 hsp-16.48 expression, induction",[2],1.73 fold
same,"T27E4.8 hsp-16.1 expression, induction",[2],1.82 fold
same,"T27F6.8 expression, induction",[2],1.45 fold
same,"T28C12.4 expression, induction",[2],1.59 fold
same,"W02D9.10 expression, induction",[2],1.15 fold
same,"Y22D7AL.5 hsp-60 expression, induction",[2],1.77 fold
same,"Y38E10A.15 nspe-7 expression, induction",[2],2.14 fold
same,"Y46H3A.2 hsp-16.41 expression, induction",[2],2.00 fold
same,"Y46H3A.3 hsp-16.2 expression, induction",[2],1.72 fold
same,"Y56A3A.33 expression, induction",[2],1.77 fold
same,"Y58A7A.5 expression, induction",[2],3.10 fold
same,"ZC376.7 atfs-1 expression, induction",[2],1.86 fold
same,"ZC443.6 ugt-16 expression, induction",[2],2.76 fold
same,"ZK697.6 gst-21 expression, induction",[2],2.66 fold
CN(C)/N=N/c1ccc(-c2cn(Cc3ccccc3)cn2)cc1 [LK38],"TD50, slow killing","[1]; N2 wild-type, Fig S5",59.5 h
same,"TD50, slow killing","[1]; atf-7 RNAi, 50 µM, Fig 9",36.8 h
same,"TD50, slow killing","[1]; nsy-1(ag3) mutant, Fig S5",26.5 h
same,"TD50, slow killing","[1]; pmk-1 RNAi, 50 µM, Fig 9",35.6 h
same,Rescue in slow killing on disruption of the PMK-1 MAPK pathway,"[1]; pmk-1 or atf-7 RNAi, 50 µM",completely dependent upon the PMK-1/MAPK pathways
same,"TD50, slow killing","[1]; sek-1(km4) mutant, Fig S5",27.6 h
same,"TD50, slow killing","[1]; vector RNAi, 50 µM, Fig 9 panels A-B, C, E",65.2 h
same,"TD50, slow killing","[1]; vector RNAi, 50 µM, Fig 9 panels D, F",53.5 h
same,"TD50, slow killing","[1]; wild-type worms, 50 µM, Fig 8 (DMSO 58.9)",59.5 h
same,Survival in slow-killing assay vs DMSO,[1]; 50 µM,improved survival
same,"B0024.4 expression, induction",[2],3.17 fold
same,"C02B4.2 nhr-17 expression, induction",[2],1.71 fold
same,"C06B3.7 expression, induction",[2],1.11 fold
same,"C07G3.2 irg-1 expression, induction",[2],2.65 fold
same,"C12C8.1 hsp-70 expression, induction",[2],0.53 fold
same,"C15F1.7 sod-1 expression, induction",[2],1.43 fold
same,"C29F7.2 expression, induction",[2],32.57 fold
same,"C31A11.5 oac-6 expression, induction",[2],9.73 fold
same,"C32D5.12 expression, induction",[2],3.71 fold
same,"C32H11.1 expression, induction",[2],18.31 fold
same,"C32H11.3 expression, induction",[2],11.99 fold
same,"C34G6.4 pgp-2 expression, induction",[2],4.68 fold
same,"C37C3.10 expression, induction",[2],2.39 fold
same,"C37H5.8 hsp-6 expression, induction",[2],1.74 fold
same,"C49G7.5 irg-2 expression, induction",[2],3.91 fold
same,"F08F8.5 numr-1 expression, induction",[2],1.76 fold
same,"F08H9.4 expression, induction",[2],1.05 fold
same,"F14F9.3 expression, induction",[2],6.65 fold
same,"F22B5.4 expression, induction",[2],4.88 fold
same,"F22H10.2 expression, induction",[2],0.89 fold
same,"F26A3.4 expression, induction",[2],1.16 fold
same,"F35E8.11 cdr-1 expression, induction",[2],136.66 fold
same,"F35G2.4 phy-2 expression, induction",[2],1.91 fold
same,"F37B12.2 gcs-1 expression, induction",[2],1.21 fold
same,"F43E2.8 hsp-4 expression, induction",[2],1.31 fold
same,"F44E5.5 expression, induction",[2],0.94 fold
same,"F49F1.6 expression, induction",[2],3.06 fold
same,"F49F1.7 expression, induction",[2],27.43 fold
same,"F49H6.13 expression, induction",[2],1.54 fold
same,"F54B8.4 expression, induction",[2],5.05 fold
same,"F55G11.2 expression, induction",[2],2.13 fold
same,"F59A7.1 clec-206 expression, induction",[2],56.72 fold
same,"F59B10.4 expression, induction",[2],3.99 fold
same,"H12D21.1 nspa-1 expression, induction",[2],0.84 fold
same,"H23N18.1 ugt-13 expression, induction",[2],7.19 fold
same,"H23N18.3 ugt-8 expression, induction",[2],35.45 fold
same,"K05B2.4 expression, induction",[2],25.19 fold
same,"K08F4.7 gst-4 expression, induction",[2],1.42 fold
same,"K09A9.1 nipi-3 expression, induction",[2],2.18 fold
same,"K10D11.2 expression, induction",[2],2.89 fold
same,"K10G4.3 expression, induction",[2],3.15 fold
same,"R03D7.6 gst-5 expression, induction",[2],21.05 fold
same,"R08H2.1 dhs-23 expression, induction",[2],243.00 fold
same,"R10E8.3 expression, induction",[2],1.97 fold
same,"T19D12.3 expression, induction",[2],1.91 fold
same,"T19H12.1 ugt-9 expression, induction",[2],8.16 fold
same,"T21E8.1 pgp-6 expression, induction",[2],3.69 fold
same,"T22B7.3 expression, induction",[2],1.08 fold
same,"T24C4.4 expression, induction",[2],1.30 fold
same,"T24E12.5 expression, induction",[2],2.60 fold
same,"T27E4.3 hsp-16.48 expression, induction",[2],0.91 fold
same,"T27E4.8 hsp-16.1 expression, induction",[2],0.90 fold
same,"T27F6.8 expression, induction",[2],3.28 fold
same,"T28C12.4 expression, induction",[2],8.72 fold
same,"W02D9.10 expression, induction",[2],0.89 fold
same,"Y22D7AL.5 hsp-60 expression, induction",[2],0.89 fold
same,"Y38E10A.15 nspe-7 expression, induction",[2],1.82 fold
same,"Y46H3A.2 hsp-16.41 expression, induction",[2],0.62 fold
same,"Y46H3A.3 hsp-16.2 expression, induction",[2],0.79 fold
same,"Y56A3A.33 expression, induction",[2],1.72 fold
same,"Y58A7A.5 expression, induction",[2],2.03 fold
same,"ZC376.7 atfs-1 expression, induction",[2],2.11 fold
same,"ZC443.6 ugt-16 expression, induction",[2],78.74 fold
same,"ZK697.6 gst-21 expression, induction",[2],47.19 fold
